Data as given in patent US20110217265A1, “Screening for Inhibitors of HCV Amphipathic Helix (AH) Function” (priority 2008, published 2011).

Key:
2a HCV RNA replicon = 2a HCV RNA replicon assay (FL-J6/JFH-5'C19Rluc2AUbi, luciferase); type: cell-based, Hepatitis C Virus genotype 2a; settings: Hepatitis C virus, read-out: 2a (%) Percent of virus activity remaining in the presence of the compound
From the text: Plasmids. Bart79I, a high-efficiency subgenomic replicon of HCV (28), harbors the neomycin resistance gene (neo) and the HCV nonstructural proteins. The Bart-Luciferase plasmid, Bart79I-luc, was cloned from the Bart791 parent (29) and the pGL3-Basic parent (Promega). In brief, a NotI site was introduced after the 15th amino acid of Core in Bart791 using PCR mutagenesis. The plasmid pcDNA3.1-NS4B, which encodes the Con1 NS4B sequence and was used to study the protein stability of the wild type and mutant NS4Bs, was described previously. To introduce the M2 mutation into the 4BAH2 of plasmids encoding HCV replicons or NS4B, the nucleotide sequence GCG that encodes for alanine at NS4B amino acid position 51 was changed to GAG (encoding for glutamate) and the nucleotide sequence TGG that encodes for tryptophan at amino acid position 55 was changed to GAT (encoding for aspartate) through the use of Quick-ChangeTMXL site-directed mutagenesis kit (Stratagene, La Jolla, Calif.) as described by the manufacturer and confirmed by sequencing. FL-J6/JFH-5′C19Rluc2AUbi, which is a monocistronic, full-length HCV genome that expresses Renilla luciferase (Rluc) and was derived from the previously described infectious genotype 2a HCV genome J6/JFH1.
(§1) Antiviral Assays of Compounds. Subconfluent Huh7.5 cells were trypsinized and collected by centrifugation at 700 g for 5 min. The cells were then washed three times in ice-cold RNasefree PBS buffer (BioWhittaker) and resuspended at 1.5×10^7 cells·ml^−1 in PBS buffer. Wild-type FL-J6/JFH-5′C19Rluc2AUbi and Bart79I-luc RNAs for electroporation were generated by in vitro transcription of XbaI (FL-J6/JFH-5′C19Rluc2AUbi) and ScaI (Bart791-luc)-linearized DNA templates using the T7 MEGAscript kit (Ambion), followed by phenol-chloroform purification and DEPC water suspension, 5 μg of RNA were mixed with 400 μl of washed Huh7.5 cells in a 2-mm-gap cuvette (BTX) and immediately pulsed (0.82 kV (FL-J6/JFH-5′C19Rluc2AUbi) and 0.68 kV (Bart79I-luc), five […] pulses) with a BTX-830 electroporator. After 10 min recovery at 25° C., pulsed cells were diluted into 20 ml of pre-warmed growth medium. Cells from several electroporations were pooled to a common stock and seeded in 96-well plates (17,000-20,000 cells per well). After 24 hr, compounds were added to the cells and media changes were performed daily with fresh compounds. After 72 hr of treatment, cells were incubated for 2 hr at 37° C. in the presence of 10% Alamar Blue reagent (TREK Diagnostic Systems) to assess for cytotoxicity. Plates were then scanned and fluorescence was detected by using a FLEXstation II 384 (Molecular Devices). The signal was normalized relative to untreated samples. Viral RNA replication was determined using Renilla (FL-J6/JFH-5′C19Rluc2AUbi) or firefly (Bart791-luc) luciferase assays, according to the manufacturer's (Promega) directions. The same samples subjected to the viability assay described below were analyzed in this assay. According to the manufacturer protocol, cells were washed with PBS buffer and shaken at room temperature for 15 min in 20 μl of lysis buffer. Reporter assays were performed directly in the wells of the culture plates by injecting 100 μl of the assay substrate into each well. Luminescence was measured over 10 seconds with a 2-second delay using a Berthold LB 96 V luminometer. Signal was normalized relative to untreated samples or samples grown in the presence of the corresponding concentration of DMSO. Experiments were repeated three times, each time with 4 replicates.

Huh7.5 cells = experiment: Alamar Blue cell viability assay; type: cell-based, human
Description: as §1, with “Plates were then scanned and fluorescence was detected by using a FLEXstation II 384 (Molecular Devices).” left out

For `Cc1ccncc1NC(=O)c1nc(Cl)c(N(C)CC(C)C)nc1N.Cl` [ID 235, 3-amino-6-chloro-5-(isobutyl(methyl)amino)-N-(4-methylpyridin-3-yl)pyrazine-2-carboxamide hydrochloride], the activity at 5 µM (2a HCV RNA replicon) was 48%, the activity at 10 µM (2a HCV RNA replicon) was 22% and the “Cell Viability (%), alamar blue” value (Huh7.5 cells; 5 μM) was 84%. The “Cell Viability (%), alamar blue” value (Huh7.5 cells; 10 μM) was 68%.

With `CC(C)CN(C)c1nc(N)c(C(=O)Nc2ccccc2)nc1Cl` [ID 295, 3-amino-6-chloro-5-(isobutyl(methyl)amino)-N-phenylpyrazine-2-carboxamide] the activity at 5 µM (2a HCV RNA replicon) was 65%, the activity at 10 µM (2a HCV RNA replicon) was 47% and the “Cell Viability (%), alamar blue” value (Huh7.5 cells; 5 μM) was over 100%. The “Cell Viability (%), alamar blue” value (Huh7.5 cells; 10 μM) was 90%.

In the case of `CCN(C)c1nc(N)c(C(=O)Nc2cnccc2C)nc1Cl` [ID 469, 3-amino-6-chloro-5-(ethyl(methyl)amino)-N-(4-methylpyridin-3-yl)pyrazine-2-carboxamide 2,2,2-trifluoroacetate], the activity at 5 µM (2a HCV RNA replicon) is reported as 65%, the activity at 10 µM (2a HCV RNA replicon) is reported as 42% and the “Cell Viability (%), alamar blue” value (Huh7.5 cells; 5 μM) is reported as 75%. For the same compound, the “Cell Viability (%), alamar blue” value (Huh7.5 cells; 10 μM) was 71%.

With `CCN(CC)c1nc(N)c(C(=O)Nc2cnccc2C)nc1Cl` [ID 460, 3-amino-6-chloro-5-(diethylamino)-N-(4-methylpyridin-3-yl)pyrazine-2-carboxamide 2,2,2-trifluoroacetate] the activity at 5 µM (2a HCV RNA replicon) was 45%, the activity at 10 µM (2a HCV RNA replicon) was 22% and the “Cell Viability (%), alamar blue” value (Huh7.5 cells; 5 μM) was 85%. For the same compound, the “Cell Viability (%), alamar blue” value (Huh7.5 cells; 10 μM) was 73%.

`CC(C)CN(C)c1nc(N)c(C(=O)NCc2ccccn2)nc1Cl.Cl` [ID 204, 3-amino-6-chloro-5-(isobutyl(methyl)amino)-N-(pyridin-2-ylmethyl)pyrazine-2-carboxamide hydrochloride] was tested, and the activity at 5 µM (2a HCV RNA replicon) was 66%, the activity at 10 µM (2a HCV RNA replicon) was 60% and the “Cell Viability (%), alamar blue” value (Huh7.5 cells; 5 μM) was over 100%. For the same compound, the “Cell Viability (%), alamar blue” value (Huh7.5 cells; 10 μM) was 99%.

`Cc1cc(NC(=O)c2nc(Cl)c(N(C)CC(C)C)nc2N)cnc1Cl` [ID 291, 3-amino-6-chloro-N-(6-chloro-5-methylpyridin-3-yl)-5-(isobutyl(methyl)amino)pyrazine-2-carboxamide bis(2,2,2-trifluoroacetate)] was tested, and the activity at 5 µM (2a HCV RNA replicon) was 59%, the activity at 10 µM (2a HCV RNA replicon) was 21% and the “Cell Viability (%), alamar blue” value (Huh7.5 cells; 5 μM) was 79%. The “Cell Viability (%), alamar blue” value (Huh7.5 cells; 10 μM) was 53%.

With `Cc1ccncc1NC(=O)c1cnc(N(C)C(C)C)cn1` [ID 459, 5-(isopropyl(methyl)amino)-N-(4-methylpyridin-3-yl)pyrazine-2-carboxamide 2,2,2-trifluoroacetate] the activity at 5 µM (2a HCV RNA replicon) was 22%, the activity at 10 µM (2a HCV RNA replicon) was 11% and the “Cell Viability (%), alamar blue” value (Huh7.5 cells; 5 μM) was 64%. The “Cell Viability (%), alamar blue” value (Huh7.5 cells; 10 μM) was 65%.

`CC(C)CN(C)c1nc(N)c(C(=O)Nc2ccncc2)nc1Cl.Cl` [ID 203, 3-amino-6-chloro-5-(isobutyl(methyl)amino)-N-(pyridin-4-yl)pyrazine-2-carboxamide hydrochloride] was tested, and the activity at 5 µM (2a HCV RNA replicon) was 68%, the activity at 10 µM (2a HCV RNA replicon) was 59% and the “Cell Viability (%), alamar blue” value (Huh7.5 cells; 5 μM) was 92%. For the same compound, the “Cell Viability (%), alamar blue” value (Huh7.5 cells; 10 μM) was 90%.

For `CC(C)CN(C)c1nc(N)c(C(=O)Nc2nncs2)nc1Cl.Cl` [ID 205, 3-amino-6-chloro-5-(isobutyl(methyl)amino)-N-(1,3,4-thiadiazol-2-yl)pyrazine-2-carboxamide hydrochloride], the activity at 5 µM (2a HCV RNA replicon) was 42%, the activity at 10 µM (2a HCV RNA replicon) was 17% and the “Cell Viability (%), alamar blue” value (Huh7.5 cells; 5 μM) was 88%. The “Cell Viability (%), alamar blue” value (Huh7.5 cells; 10 μM) was 67%.

For `Cc1ccncc1NC(=O)c1cnc(N(C)CC(C)C)cn1` [ID 414, 5-(isobutyl(methyl)amino)-N-(4-methylpyridin-3-yl)pyrazine-2-carboxamide 2,2,2-trifluoroacetate], the activity at 5 µM (2a HCV RNA replicon) was 60%, the activity at 10 µM (2a HCV RNA replicon) was 53% and the “Cell Viability (%), alamar blue” value (Huh7.5 cells; 5 μM) was 100%. For the same compound, the “Cell Viability (%), alamar blue” value (Huh7.5 cells; 10 μM) was 90%.

In the case of `Cc1cncc(NC(=O)c2nc(Cl)c(N(C)CC(C)C)nc2N)c1` [ID 296, 3-amino-6-chloro-5-(isobutyl(methyl)amino)-N-(5-methylpyridin-3-yl)pyrazine-2-carboxamide bis(2,2,2-trifluoroacetate)], the activity at 5 µM (2a HCV RNA replicon) is reported as 52%, the activity at 10 µM (2a HCV RNA replicon) is reported as 18% and the “Cell Viability (%), alamar blue” value (Huh7.5 cells; 5 μM) is reported as 100%. For the same compound, the “Cell Viability (%), alamar blue” value (Huh7.5 cells; 10 μM) was 76%.

In the case of `CC(C)CN(C)c1nc(N)c(C(=O)NCc2ccsc2)nc1Cl.Cl` [ID 148, 3-amino-6-chloro-5-(isobutyl(methyl)amino)-N-(thiophen-3-ylmethyl)pyrazine-2-carboxamide hydrochloride], the activity at 5 µM (2a HCV RNA replicon) is reported as 69%, the activity at 10 µM (2a HCV RNA replicon) is reported as 53% and the “Cell Viability (%), alamar blue” value (Huh7.5 cells; 5 μM) is reported as 99%. The “Cell Viability (%), alamar blue” value (Huh7.5 cells; 10 μM) was 90%.

In the case of `CC(C)CN(C)c1nc(N)c(C(=O)NCc2cccs2)nc1Cl` [ID 150, 3-amino-6-chloro-5-(isobutyl(methyl)amino)-N-(thiophen-2-ylmethyl)pyrazine-2-carboxamide 2,2,2-trifluoroacetate], the activity at 5 µM (2a HCV RNA replicon) is reported as 65%, the activity at 10 µM (2a HCV RNA replicon) is reported as 48% and the “Cell Viability (%), alamar blue” value (Huh7.5 cells; 5 μM) is reported as over 100%. For the same compound, the “Cell Viability (%), alamar blue” value (Huh7.5 cells; 10 μM) was 77%.

With `CC(C)CN(C)c1nc(N)c(C(=O)Nc2ccccn2)nc1Cl.Cl` [ID 201, 3-amino-6-chloro-5-(isobutyl(methyl)amino)-N-(pyridin-2-yl)pyrazine-2-carboxamide hydrochloride] the activity at 5 µM (2a HCV RNA replicon) was 74%, the activity at 10 µM (2a HCV RNA replicon) was 48% and the “Cell Viability (%), alamar blue” value (Huh7.5 cells; 5 μM) was over 100%. The “Cell Viability (%), alamar blue” value (Huh7.5 cells; 10 μM) was 92%.

With `CC(C)CN(C)c1nc(N)c(C(=O)NCc2nccs2)nc1Cl.Cl` [ID 149, 3-amino-6-chloro-5-(isobutyl(methyl)amino)-N-(thiazol-2-ylmethyl)pyrazine-2-carboxamide hydrochloride] the activity at 5 µM (2a HCV RNA replicon) was 68%, the activity at 10 µM (2a HCV RNA replicon) was 50% and the “Cell Viability (%), alamar blue” value (Huh7.5 cells; 5 μM) was over 100%. For the same compound, the “Cell Viability (%), alamar blue” value (Huh7.5 cells; 10 μM) was over 100%.

In the case of `CC(C)CN(C)c1nc(N)c(C(=O)Nc2ccon2)nc1Cl.Cl` [ID 200, 3-amino-6-chloro-5-(isobutyl(methyl)amino)-N-(isoxazol-3-yl)pyrazine-2-carboxamide hydrochloride], the activity at 5 µM (2a HCV RNA replicon) is reported as 77%, the activity at 10 µM (2a HCV RNA replicon) is reported as 65% and the “Cell Viability (%), alamar blue” value (Huh7.5 cells; 5 μM) is reported as 96%. The “Cell Viability (%), alamar blue” value (Huh7.5 cells; 10 μM) was 96%.

`Cc1ccncc1NC(=O)c1cnc(N(C)CC(C)C)c(Cl)n1` [ID 473, 6-chloro-5-(isobutyl(methyl)amino)-N-(4-methylpyridin-3-yl)pyrazine-2-carboxamide 2,2,2-trifluoroacetate] was tested, and the activity at 5 µM (2a HCV RNA replicon) was 87%, the activity at 10 µM (2a HCV RNA replicon) was 73% and the “Cell Viability (%), alamar blue” value (Huh7.5 cells; 5 μM) was 94%. For the same compound, the “Cell Viability (%), alamar blue” value (Huh7.5 cells; 10 μM) was 95%.
